The values that follow come from patent US11130793B2, “GLP-1/GLP-2 dual agonists” (Zealand Pharma A/S, priority 2016, dated 2021).

The target in assay [1] is T1, human GLP-2 receptor (Homo sapiens, UniProt O95838, D470N).
T1 sequence (O95838 1-553 D470N): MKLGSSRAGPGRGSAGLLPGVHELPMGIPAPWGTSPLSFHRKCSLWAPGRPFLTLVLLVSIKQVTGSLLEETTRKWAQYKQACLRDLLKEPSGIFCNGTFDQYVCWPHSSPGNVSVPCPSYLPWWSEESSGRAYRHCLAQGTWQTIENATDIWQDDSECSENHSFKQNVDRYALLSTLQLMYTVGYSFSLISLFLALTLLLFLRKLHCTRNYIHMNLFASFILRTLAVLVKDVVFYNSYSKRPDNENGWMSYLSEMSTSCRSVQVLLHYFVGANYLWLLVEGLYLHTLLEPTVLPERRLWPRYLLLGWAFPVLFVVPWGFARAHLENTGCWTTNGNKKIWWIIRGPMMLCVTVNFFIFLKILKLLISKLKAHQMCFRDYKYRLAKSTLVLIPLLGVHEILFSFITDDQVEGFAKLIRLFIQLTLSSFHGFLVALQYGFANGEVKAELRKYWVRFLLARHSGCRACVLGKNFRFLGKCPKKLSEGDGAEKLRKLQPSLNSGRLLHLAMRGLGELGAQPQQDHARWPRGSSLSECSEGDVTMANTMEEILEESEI
Put plainly: GLP-2 receptor potency assay (cAMP AlphaScreen, HEK293 cells stably expressing GLP-2R). Format: cell-based. To be noted: cAMP response, HEK293 cells expressing human GLP-2R. A digest of the protocol:
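HEK293 cells stably expressing human GLP-2R (G418-selected clone); intracellular cAMP measured by AlphaScreen. Responses normalized to positive and vehicle controls; EC50 and maximal response from 4-parameter logistic fit.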
Background: Alpha assays give light when donor and acceptor beads are brought close together.

Assay [2] deals with T2, human GLP-1 receptor (Homo sapiens, UniProt P43220).
T2 construct: expressed in transfected cells
T2 sequence (P43220 24-463): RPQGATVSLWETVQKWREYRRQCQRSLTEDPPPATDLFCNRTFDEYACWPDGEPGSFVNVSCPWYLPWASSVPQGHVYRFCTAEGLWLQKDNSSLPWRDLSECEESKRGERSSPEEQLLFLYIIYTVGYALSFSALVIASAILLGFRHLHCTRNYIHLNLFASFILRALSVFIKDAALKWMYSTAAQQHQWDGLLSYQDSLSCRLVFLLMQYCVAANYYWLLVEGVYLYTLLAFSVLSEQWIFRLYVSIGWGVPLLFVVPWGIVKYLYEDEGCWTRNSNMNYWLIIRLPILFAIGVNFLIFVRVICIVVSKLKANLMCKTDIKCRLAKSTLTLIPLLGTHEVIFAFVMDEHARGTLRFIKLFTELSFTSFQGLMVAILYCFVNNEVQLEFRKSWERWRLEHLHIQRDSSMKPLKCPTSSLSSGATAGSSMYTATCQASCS
Briefly: GLP-1 receptor potency assay (cAMP AlphaScreen, HEK293 cells stably expressing GLP-1R). Format: cell-based. Particulars: cAMP response, HEK293 cells expressing human GLP-1R; read-out: EC50 GLP-1. In short, it runs like this:
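A HEK293 clone stably expressing cloned human GLP-1R (G418-selected) was stimulated with compound. Intracellular cAMP was measured by AlphaScreen. Responses were normalized to positive and vehicle controls, and EC50 and maximal response were fitted by 4-parameter logistic regression.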

Square brackets hold non-standard residues; d marks the D form. Peptide text beside a SMILES is read from it. Aib = CC(C)(N)C(=O)O

For `CC[C@H](C)[C@H](NC(=O)[C@H](Cc1ccccc1)NC(=O)[C@H](CC(=O)O)NC(=O)[C@H](CCCNC(=N)N)NC(=O)[C@H](C)NC(=O)[C@H](C)NC(=O)[C@H](CCC(N)=O)NC(=O)[C@H](CCC(=O)O)NC(=O)[C@H](CC(=O)O)NC(=O)[C@H](CC(C)C)NC(=O)[C@@H](NC(=O)[C@@H](NC(=O)[C@H](C)NC(=O)[C@H](CC(C)C)NC(=O)[C@H](CCC(=O)O)NC(=O)[C@H](CO)NC(=O)[C@@H](NC(=O)[C@H](Cc1ccccc1)NC(=O)[C@@H](NC(=O)CNC(=O)[C@H](CCC(=O)O)NC(=O)C(C)(C)NC(=O)[C@@H](N)Cc1c[nH]cn1)[C@@H](C)O)[C@@H](C)O)[C@@H](C)O)[C@@H](C)CC)C(=O)N[C@@H](CC(N)=O)C(=O)N[C@@H](Cc1c[nH]c2ccccc12)C(=O)N[C@@H](CC(C)C)C(=O)N[C@@H](CCCCN)C(=O)N[C@@H](CCC(=O)O)C(=O)N[C@@H](CCC(N)=O)C(=O)N[C@@H](CCCCN)C(=O)N[C@H](C(=O)N[C@H](C(=O)N[C@@H](CC(=O)O)C(=O)O)[C@@H](C)O)[C@@H](C)CC` [Compound 37] (H-H[Aib]EGTFTSELATILDEQAARDFINWLKEQKITD-OH), the EC50 (commonly the concentration giving half of the maximal effect) in assay [1] turned out to be 0.16 nM; in assay [2], 0.007 nM.
For `CC[C@H](C)[C@H](NC(=O)[C@H](Cc1ccccc1)NC(=O)[C@H](CC(=O)O)NC(=O)[C@H](CCCNC(=N)N)NC(=O)[C@H](C)NC(=O)[C@H](C)NC(=O)[C@H](CCC(N)=O)NC(=O)[C@H](CCC(=O)O)NC(=O)[C@H](CC(=O)O)NC(=O)[C@H](CC(C)C)NC(=O)[C@@H](NC(=O)[C@@H](NC(=O)[C@H](C)NC(=O)[C@H](CC(C)C)NC(=O)[C@H](CCC(=O)O)NC(=O)[C@H](CC(=O)O)NC(=O)[C@@H](NC(=O)[C@H](Cc1ccccc1)NC(=O)[C@@H](NC(=O)CNC(=O)[C@H](CCC(=O)O)NC(=O)C(C)(C)NC(=O)[C@@H](N)Cc1c[nH]cn1)[C@@H](C)O)[C@@H](C)O)[C@@H](C)O)[C@@H](C)CC)C(=O)N[C@@H](C)C(=O)N[C@@H](Cc1c[nH]c2ccccc12)C(=O)N[C@@H](CC(C)C)C(=O)N[C@@H](CCC(N)=O)C(=O)N[C@@H](C)C(=O)N[C@@H](CCC(N)=O)C(=O)N[C@@H](CCCCN)C(=O)N[C@H](C(=O)N[C@H](C(=O)N[C@@H](CC(=O)O)C(=O)O)[C@@H](C)O)[C@@H](C)CC` [Compound 29] (H-H[Aib]EGTFTDELATILDEQAARDFIAWLQAQKITD-OH) the same measures were 0.11 nM and 0.044 nM.
For `CC[C@H](C)[C@H](NC(=O)[C@H](Cc1ccccc1)NC(=O)[C@H](CC(=O)O)NC(=O)[C@H](CCCNC(=N)N)NC(=O)[C@H](C)NC(=O)[C@H](C)NC(=O)[C@H](CCC(N)=O)NC(=O)[C@H](CCC(=O)O)NC(=O)[C@H](CC(=O)O)NC(=O)[C@H](CC(C)C)NC(=O)[C@@H](NC(=O)[C@@H](NC(=O)[C@H](C)NC(=O)[C@H](CC(C)C)NC(=O)[C@H](CCC(=O)O)NC(=O)[C@H](CO)NC(=O)[C@@H](NC(=O)[C@H](Cc1ccccc1)NC(=O)[C@@H](NC(=O)CNC(=O)[C@H](CCC(=O)O)NC(=O)C(C)(C)NC(=O)[C@@H](N)Cc1c[nH]cn1)[C@@H](C)O)[C@@H](C)O)[C@@H](C)O)[C@@H](C)CC)C(=O)N[C@@H](C)C(=O)N[C@@H](Cc1c[nH]c2ccccc12)C(=O)N[C@@H](CC(C)C)C(=O)N[C@@H](Cc1ccc(O)cc1)C(=O)N[C@@H](C)C(=O)N[C@@H](Cc1c[nH]cn1)C(=O)N[C@@H](CCCCN)C(=O)N[C@H](C(=O)N[C@H](C(=O)N[C@@H](CC(=O)O)C(=O)O)[C@@H](C)O)[C@@H](C)CC` [Compound 14] (H-H[Aib]EGTFTSELATILDEQAARDFIAWLYAHKITD-OH), the concentration giving a half-maximal response (EC50) in assay [1] came to 0.049 nM; in assay [2], 0.021 nM.
`CC[C@H](C)[C@H](NC(=O)[C@H](CC(C)C)NC(=O)[C@H](Cc1c[nH]c2ccccc12)NC(=O)[C@H](C)NC(=O)[C@@H](NC(=O)[C@H](Cc1ccccc1)NC(=O)[C@H](CC(=O)O)NC(=O)[C@H](CCCNC(=N)N)NC(=O)[C@H](C)NC(=O)[C@H](C)NC(=O)[C@H](CCCCN)NC(=O)CNC(=O)[C@H](CC(=O)O)NC(=O)[C@H](CC(C)C)NC(=O)[C@@H](NC(=O)[C@@H](NC(=O)[C@H](C)NC(=O)[C@H](CC(C)C)NC(=O)[C@H](CCC(=O)O)NC(=O)[C@H](CO)NC(=O)[C@H](CO)NC(=O)[C@H](Cc1ccccc1)NC(=O)[C@@H](NC(=O)CNC(=O)[C@H](CCC(=O)O)NC(=O)C(C)(C)NC(=O)[C@@H](N)Cc1c[nH]cn1)[C@@H](C)O)[C@@H](C)O)[C@@H](C)CC)[C@@H](C)CC)C(=O)N[C@@H](C)C(=O)N[C@@H](Cc1c[nH]cn1)C(=O)N[C@@H](CCCCN)C(=O)N[C@H](C(=O)N[C@H](C(=O)N[C@@H](CC(=O)O)C(=O)O)[C@@H](C)O)[C@@H](C)CC` [Compound 32] (H-H[Aib]EGTFSSELATILDGKAARDFIAWLIAHKITD-OH): the EC50 in assay [1] came out at 0.15 nM; in assay [2], 0.038 nM.
As to `CC[C@H](C)[C@H](NC(=O)[C@H](Cc1ccccc1)NC(=O)[C@H](CC(=O)O)NC(=O)[C@H](CCCNC(=N)N)NC(=O)[C@H](C)NC(=O)[C@H](C)NC(=O)[C@H](CCC(N)=O)NC(=O)[C@H](CCC(=O)O)NC(=O)[C@H](CC(=O)O)NC(=O)[C@H](CC(C)C)NC(=O)[C@@H](NC(=O)[C@@H](NC(=O)[C@H](C)NC(=O)[C@H](CC(C)C)NC(=O)[C@H](CCC(=O)O)NC(=O)[C@H](CO)NC(=O)[C@@H](NC(=O)[C@H](Cc1ccccc1)NC(=O)[C@@H](NC(=O)CNC(=O)[C@H](CCC(=O)O)NC(=O)C(C)(C)NC(=O)[C@@H](N)Cc1c[nH]cn1)[C@@H](C)O)[C@@H](C)O)[C@@H](C)O)[C@@H](C)CC)C(=O)N[C@@H](C)C(=O)N[C@@H](Cc1c[nH]c2ccccc12)C(=O)N[C@@H](CC(C)C)C(=O)N[C@@H](Cc1c[nH]cn1)C(=O)N[C@@H](C)C(=O)N[C@@H](Cc1c[nH]cn1)C(=O)N[C@@H](CCCCN)C(=O)N[C@H](C(=O)N[C@H](C(=O)N[C@@H](CC(=O)O)C(=O)O)[C@@H](C)O)[C@@H](C)CC` [Compound 12] (H-H[Aib]EGTFTSELATILDEQAARDFIAWLHAHKITD-OH), the EC50 in assay [1] is 0.076 nM; in assay [2], 0.055 nM.
In the case of “H-HGEGSFSSELATILDEQAARDFIAWLIQHKITD-NH2 [Compound 40]”, the EC50 is 0.05 nM in assay [1] and 1.4 nM in assay [2].
For `CC[C@H](C)[C@H](NC(=O)[C@H](Cc1ccccc1)NC(=O)[C@H](CC(=O)O)NC(=O)[C@H](CCCNC(=N)N)NC(=O)[C@H](C)NC(=O)[C@H](C)NC(=O)[C@H](CCC(N)=O)NC(=O)[C@H](CCC(=O)O)NC(=O)[C@H](CC(=O)O)NC(=O)[C@H](CC(C)C)NC(=O)[C@@H](NC(=O)[C@@H](NC(=O)[C@H](C)NC(=O)[C@H](CC(C)C)NC(=O)[C@H](CCC(=O)O)NC(=O)[C@H](CO)NC(=O)[C@@H](NC(=O)[C@H](Cc1ccccc1)NC(=O)[C@@H](NC(=O)CNC(=O)[C@H](CCC(=O)O)NC(=O)C(C)(C)NC(=O)[C@@H](N)Cc1c[nH]cn1)[C@@H](C)O)[C@@H](C)O)[C@@H](C)O)[C@@H](C)CC)C(=O)N[C@@H](C)C(=O)N[C@@H](Cc1c[nH]c2ccccc12)C(=O)N[C@@H](CC(C)C)C(=O)N[C@@H](Cc1c[nH]cn1)C(=O)N[C@@H](CCC(N)=O)C(=O)N[C@@H](Cc1c[nH]cn1)C(=O)N[C@@H](CCCCN)C(=O)N[C@H](C(=O)N[C@H](C(=O)N[C@@H](CC(=O)O)C(=O)O)[C@@H](C)O)[C@@H](C)CC` [Compound 21] (H-H[Aib]EGTFTSELATILDEQAARDFIAWLHQHKITD-OH), the values for the 50% effective concentration (EC50) in assay [1] and in assay [2] were 0.11 nM and 0.049 nM, respectively.
For `CC[C@H](C)[C@H](NC(=O)[C@H](Cc1ccccc1)NC(=O)[C@H](CC(=O)O)NC(=O)[C@H](CCCNC(=N)N)NC(=O)[C@H](C)NC(=O)[C@H](C)NC(=O)[C@H](CCC(N)=O)NC(=O)[C@H](CCC(=O)O)NC(=O)[C@H](CC(=O)O)NC(=O)[C@H](CC(C)C)NC(=O)[C@@H](NC(=O)[C@@H](NC(=O)[C@H](C)NC(=O)[C@H](CC(C)C)NC(=O)[C@H](CCC(=O)O)NC(=O)[C@H](CO)NC(=O)[C@H](CO)NC(=O)[C@H](Cc1ccccc1)NC(=O)[C@H](CO)NC(=O)CNC(=O)[C@H](CCC(=O)O)NC(=O)C(C)(C)NC(=O)[C@@H](N)Cc1c[nH]cn1)[C@@H](C)O)[C@@H](C)CC)C(=O)N[C@@H](C)C(=O)N[C@@H](Cc1c[nH]c2ccccc12)C(=O)N[C@@H](CC(C)C)C(=O)N[C@H](C(=O)N[C@@H](CCC(N)=O)C(=O)N[C@@H](Cc1c[nH]cn1)C(=O)N[C@@H](CCCCN)C(=O)N[C@H](C(=O)N[C@H](C(=O)N[C@@H](CC(=O)O)C(=O)O)[C@@H](C)O)[C@@H](C)CC)[C@@H](C)CC` [Compound 41] (H-H[Aib]EGSFSSELATILDEQAARDFIAWLIQHKITD-OH) the same measures were 0.026 nM and 0.078 nM.
